# According to ChEMBL document CHEMBL4411296, “Design and development of Isatin-triazole hydrazones as potential inhibitors of microtubule affinity-regulating kinase 4 for the therapeutic management of cell proliferation and metastasis” (Eur J Med Chem, 2019):
# Activity calls are given as the source filed them. No cut-off for these calls is given here.
# Columns and labels:
# [1] = molecular target: 5'-AMP-activated protein kinase subunit beta-1 (Homo sapiens) (UniProt Q9Y478); assay: Inhibition of AMPKB1 (unknown origin) at 10 uM after 60 mins by ADP-Glo luminescence assay
# MCF7 [2] = assay: Induction of ROS generation in human MCF7 cells at IC50 after 5 to 6 hrs by DCFDA staining-based spectroflourimetric analysis; format: functional, cell-based
# [3] = molecular target: Calcium/calmodulin-dependent protein kinase type IV (Homo sapiens) (UniProt Q16566); assay: Inhibition of CAMK4 (unknown origin) at 10 uM after 60 mins by ADP-Glo luminescence assay
# [4] = molecular target: Calcium/calmodulin-dependent protein kinase type II subunit beta (Homo sapiens) (UniProt Q13554); assay: Inhibition of CAMKII (unknown origin) at 10 uM after 60 mins by ADP-Glo luminescence assay
# HepG2 [5] = assay: Induction of apoptosis in human HepG2 cells assessed as necrotic cells at IC50 after 24 hrs by Annexin V-FITC/propidium iodide staining-based flow cytometric analysis (reference value: […]); format: functional
# MCF7 [6] = assay: Induction of apoptosis in human MCF7 cells assessed as necrotic cells at IC50 after 24 hrs by Annexin V-FITC/propidium iodide staining-based flow cytometric analysis (reference value: 0.27%); format: functional
# [7] = molecular target: Serine/threonine-protein kinase MARK1 (Homo sapiens) (UniProt Q9P0L2); assay: Inhibition of MARK1 (unknown origin) at 10 uM after 60 mins by ADP-Glo luminescence assay
# HepG2 [8] = assay: Induction of ROS generation in human HepG2 cells at IC50 after 5 to 6 hrs by DCFDA staining-based spectroflourimetric analysis; format: functional, cell-based
# [9] = molecular target: 5'-AMP-activated protein kinase catalytic subunit alpha-1 (Homo sapiens) (UniProt Q13131); assay: Inhibition of AMPKA1 (unknown origin) at 10 uM after 60 mins by ADP-Glo luminescence assay
# MDA-MB-435S [10] = assay: Induction of apoptosis in human MDA-MB-435S cells assessed as late apoptotic cells at IC50 after 24 hrs by Annexin V-FITC/propidium iodide staining-based flow cytometric analysis (reference value: 0.18%); format: functional
# MDA-MB-435S [11] = assay: Induction of ROS generation in human MDA-MB-435S cells at IC50 after 5 to 6 hrs by DCFDA staining-based spectroflourimetric analysis; format: functional, cell-based
# MCF7 [12] = assay: Induction of apoptosis in human MCF7 cells assessed as late apoptotic cells at IC50 after 24 hrs by Annexin V-FITC/propidium iodide staining-based flow cytometric analysis (reference value: 0.077%); format: functional
# [13] = molecular target: Calcium/calmodulin-dependent protein kinase type II subunit alpha (Homo sapiens) (UniProt Q9UQM7); assay: Inhibition of CAMK2 alpha (unknown origin) at 10 uM after 60 mins by ADP-Glo luminescence assay
# [14] = molecular target: Serine/threonine-protein kinase pim-1 (Homo sapiens) (UniProt P11309); assay: Inhibition of PIM1 (unknown origin) at 10 uM after 60 mins by ADP-Glo luminescence assay
# Albumin = Albumin (Homo sapiens, UniProt P02768); assay: Binding affinity to HSA by ITC; format: ADME; conditions: isolated protein
# MDA-MB-435S [15] = assay: cells; conditions: Homo sapiens, 48 h
# Description: Antiproliferative activity against human MDA-MB-435S cells assessed as cell viability after 48 hrs by MTT assay
# HepG2 [16] = assay: Antimigratory activity against human HepG2 cells at IC50 after 48 hrs by wound-healing assay; format: functional, cell-based
# [17] = molecular target: Calcium/calmodulin-dependent protein kinase type II subunit beta (Homo sapiens) (UniProt Q13554); assay: Inhibition of CAMK2 beta (unknown origin) at 10 uM after 60 mins by ADP-Glo luminescence assay
# [18] = molecular target: Death-associated protein kinase 1 (Homo sapiens) (UniProt P53355); assay: Inhibition of DAPK1 (unknown origin) at 10 uM after 60 mins by ADP-Glo luminescence assay
# MCF7 [19] = assay: Induction of apoptosis in human MCF7 cells assessed as early apoptotic cells at IC50 after 24 hrs by Annexin V-FITC/propidium iodide staining-based flow cytometric analysis (reference value: 1.23%); format: functional
# HEK293 = assay: Antiproliferative activity against human HEK293 cells assessed as cell viability after 48 hrs by MTT assay; format: cell-based; conditions: HEK293, 48 h
# [20] = molecular target: Ribosomal protein S6 kinase beta-1 (Homo sapiens) (UniProt P23443); assay: Inhibition of S6K (unknown origin) at 10 uM after 60 mins by ADP-Glo luminescence assay
# [21] = molecular target: Serine/threonine-protein kinase 33 (Homo sapiens) (UniProt Q9BYT3); assay: Inhibition of STK33 (unknown origin) at 10 uM after 60 mins by ADP-Glo luminescence assay
# MCF7 [22] = assay: Antiproliferative activity against human MCF7 cells assessed as cell viability after 48 hrs by MTT assay; conditions: MCF7, 48 h
# [23] = molecular target: Transcription factor HIVEP2 (Homo sapiens) (UniProt P31629); assay: Inhibition of MBP2 (unknown origin) at 10 uM after 60 mins by ADP-Glo luminescence assay
# [24] = molecular target: MAP kinase-activated protein kinase 2 (Homo sapiens) (UniProt P49137); assay: Inhibition of MAPKAPK2 (unknown origin) at 10 uM after 60 mins by ADP-Glo luminescence assay
# HepG2 [25] = assay: Induction of apoptosis in human HepG2 cells assessed as early apoptotic cells at IC50 after 24 hrs by Annexin V-FITC/propidium iodide staining-based flow cytometric analysis (reference value: […]); format: functional
# MCF7 [26] = assay: Induction of apoptosis in human MCF7 cells assessed as viable cells at IC50 after 24 hrs by Annexin V-FITC/propidium iodide staining-based flow cytometric analysis (reference value: 98.4%); format: functional
# MDA-MB-435S [27] = assay: Induction of apoptosis in human MDA-MB-435S cells assessed as early apoptotic cells at IC50 after 24 hrs by Annexin V-FITC/propidium iodide staining-based flow cytometric analysis (reference value: 0.36%); format: functional
# HepG2 [28] = assay: Induction of apoptosis in human HepG2 cells assessed as late apoptotic cells at IC50 after 24 hrs by Annexin V-FITC/propidium iodide staining-based flow cytometric analysis (reference value: 0.039%); format: functional
# [29] = molecular target: Serine/threonine-protein kinase Chk1 (Homo sapiens) (UniProt O14757); assay: Inhibition of CHK1 (unknown origin) at 10 uM after 60 mins by ADP-Glo luminescence assay
# MDA-MB-435S [30] = assay: Induction of apoptosis in human MDA-MB-435S cells assessed as necrotic cells at IC50 after 24 hrs by Annexin V-FITC/propidium iodide staining-based flow cytometric analysis (reference value: 0.64%); format: functional
# Chain of Calcium/calmodulin-dependent protein kinase type II subunit beta (Homo sapiens) (Q13554 whole entry): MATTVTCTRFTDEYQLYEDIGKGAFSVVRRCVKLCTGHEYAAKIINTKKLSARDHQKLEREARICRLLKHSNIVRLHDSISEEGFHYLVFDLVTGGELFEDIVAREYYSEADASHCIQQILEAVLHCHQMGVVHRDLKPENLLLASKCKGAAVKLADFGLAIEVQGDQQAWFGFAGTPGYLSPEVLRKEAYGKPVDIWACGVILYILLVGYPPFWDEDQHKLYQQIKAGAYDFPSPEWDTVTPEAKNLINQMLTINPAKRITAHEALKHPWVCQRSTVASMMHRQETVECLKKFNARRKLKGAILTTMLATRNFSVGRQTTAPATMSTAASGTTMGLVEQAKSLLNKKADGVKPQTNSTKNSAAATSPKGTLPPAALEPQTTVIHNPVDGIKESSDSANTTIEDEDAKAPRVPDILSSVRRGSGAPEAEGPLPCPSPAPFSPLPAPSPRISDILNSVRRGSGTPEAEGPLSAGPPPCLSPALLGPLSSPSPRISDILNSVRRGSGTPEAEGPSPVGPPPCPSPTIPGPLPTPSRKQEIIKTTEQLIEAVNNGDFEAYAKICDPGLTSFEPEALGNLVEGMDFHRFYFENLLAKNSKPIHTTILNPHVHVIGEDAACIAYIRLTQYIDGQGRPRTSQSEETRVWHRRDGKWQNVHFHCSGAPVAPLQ
# Chain of Transcription factor HIVEP2 (Homo sapiens) (P31629 whole entry): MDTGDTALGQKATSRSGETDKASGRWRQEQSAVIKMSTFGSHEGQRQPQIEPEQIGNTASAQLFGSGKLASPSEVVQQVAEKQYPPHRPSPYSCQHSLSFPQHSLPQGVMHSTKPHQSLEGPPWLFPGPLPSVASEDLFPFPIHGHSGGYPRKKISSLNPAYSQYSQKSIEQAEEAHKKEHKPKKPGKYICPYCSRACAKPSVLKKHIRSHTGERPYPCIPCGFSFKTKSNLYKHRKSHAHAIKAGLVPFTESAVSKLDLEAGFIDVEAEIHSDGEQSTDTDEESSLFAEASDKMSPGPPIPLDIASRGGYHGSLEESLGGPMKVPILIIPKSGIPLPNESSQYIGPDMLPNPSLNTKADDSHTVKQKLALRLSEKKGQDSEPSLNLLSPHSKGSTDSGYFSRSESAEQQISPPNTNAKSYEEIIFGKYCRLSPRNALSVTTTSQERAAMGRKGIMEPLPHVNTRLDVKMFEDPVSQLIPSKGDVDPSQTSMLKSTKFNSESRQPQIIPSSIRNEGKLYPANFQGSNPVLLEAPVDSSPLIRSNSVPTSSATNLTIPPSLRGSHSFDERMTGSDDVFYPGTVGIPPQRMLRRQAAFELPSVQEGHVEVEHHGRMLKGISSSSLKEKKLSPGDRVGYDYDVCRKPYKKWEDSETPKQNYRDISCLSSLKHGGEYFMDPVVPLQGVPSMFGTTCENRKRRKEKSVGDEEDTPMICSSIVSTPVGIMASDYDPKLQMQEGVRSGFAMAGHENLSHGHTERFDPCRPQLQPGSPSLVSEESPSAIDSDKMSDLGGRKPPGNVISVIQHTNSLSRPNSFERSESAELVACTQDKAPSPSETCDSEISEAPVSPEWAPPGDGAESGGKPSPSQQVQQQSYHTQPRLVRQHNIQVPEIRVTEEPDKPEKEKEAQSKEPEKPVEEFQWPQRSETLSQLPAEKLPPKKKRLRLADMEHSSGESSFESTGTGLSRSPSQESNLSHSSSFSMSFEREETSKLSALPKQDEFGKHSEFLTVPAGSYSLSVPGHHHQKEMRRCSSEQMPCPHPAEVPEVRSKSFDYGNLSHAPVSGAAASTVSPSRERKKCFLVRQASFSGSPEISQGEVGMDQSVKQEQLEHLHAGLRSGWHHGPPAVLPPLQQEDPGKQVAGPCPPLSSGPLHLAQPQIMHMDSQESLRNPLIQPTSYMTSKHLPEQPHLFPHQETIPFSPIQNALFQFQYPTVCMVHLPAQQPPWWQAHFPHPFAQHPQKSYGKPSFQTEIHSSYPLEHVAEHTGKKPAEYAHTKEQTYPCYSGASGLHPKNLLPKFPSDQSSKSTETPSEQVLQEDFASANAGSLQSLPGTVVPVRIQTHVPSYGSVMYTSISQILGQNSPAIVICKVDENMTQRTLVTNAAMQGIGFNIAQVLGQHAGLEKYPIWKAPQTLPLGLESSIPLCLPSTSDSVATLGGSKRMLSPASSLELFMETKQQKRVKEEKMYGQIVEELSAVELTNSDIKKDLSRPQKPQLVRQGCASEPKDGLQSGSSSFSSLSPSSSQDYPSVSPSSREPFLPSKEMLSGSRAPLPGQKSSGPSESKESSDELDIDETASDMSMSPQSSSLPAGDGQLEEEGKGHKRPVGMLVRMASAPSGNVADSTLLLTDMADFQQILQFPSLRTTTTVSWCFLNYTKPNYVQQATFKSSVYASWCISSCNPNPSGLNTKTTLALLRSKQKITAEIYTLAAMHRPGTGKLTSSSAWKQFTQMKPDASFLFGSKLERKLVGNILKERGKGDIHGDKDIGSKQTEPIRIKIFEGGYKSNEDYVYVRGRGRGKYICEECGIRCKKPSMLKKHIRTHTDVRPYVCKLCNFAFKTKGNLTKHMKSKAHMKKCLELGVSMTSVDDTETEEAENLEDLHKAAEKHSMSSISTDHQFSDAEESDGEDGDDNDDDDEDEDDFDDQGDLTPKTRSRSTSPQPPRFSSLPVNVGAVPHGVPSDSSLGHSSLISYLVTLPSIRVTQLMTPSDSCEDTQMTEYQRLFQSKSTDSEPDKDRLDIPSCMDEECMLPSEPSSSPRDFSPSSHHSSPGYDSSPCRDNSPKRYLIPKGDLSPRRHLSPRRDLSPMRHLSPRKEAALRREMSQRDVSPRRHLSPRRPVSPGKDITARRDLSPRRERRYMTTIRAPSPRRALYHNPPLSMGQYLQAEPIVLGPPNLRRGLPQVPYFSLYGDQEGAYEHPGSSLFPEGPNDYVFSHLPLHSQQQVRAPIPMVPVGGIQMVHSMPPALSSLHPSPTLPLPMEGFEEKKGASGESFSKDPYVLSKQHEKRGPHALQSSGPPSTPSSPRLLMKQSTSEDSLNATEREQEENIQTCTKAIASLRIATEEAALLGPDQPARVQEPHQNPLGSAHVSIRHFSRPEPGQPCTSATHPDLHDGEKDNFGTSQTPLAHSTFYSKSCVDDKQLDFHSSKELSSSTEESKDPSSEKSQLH
# Chain of MAP kinase-activated protein kinase 2 (Homo sapiens) (P49137 whole entry, looked up): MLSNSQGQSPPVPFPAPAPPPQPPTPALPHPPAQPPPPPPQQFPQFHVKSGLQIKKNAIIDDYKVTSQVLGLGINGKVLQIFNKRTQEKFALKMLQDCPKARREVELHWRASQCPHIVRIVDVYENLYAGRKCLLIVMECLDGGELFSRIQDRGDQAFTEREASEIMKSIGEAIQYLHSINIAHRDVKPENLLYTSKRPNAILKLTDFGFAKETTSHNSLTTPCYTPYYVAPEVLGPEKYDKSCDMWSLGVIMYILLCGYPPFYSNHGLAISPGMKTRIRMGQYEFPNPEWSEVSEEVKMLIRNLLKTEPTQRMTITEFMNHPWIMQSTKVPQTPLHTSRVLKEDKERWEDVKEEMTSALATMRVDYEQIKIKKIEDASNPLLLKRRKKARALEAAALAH
# Chain of Albumin (P02768 whole entry): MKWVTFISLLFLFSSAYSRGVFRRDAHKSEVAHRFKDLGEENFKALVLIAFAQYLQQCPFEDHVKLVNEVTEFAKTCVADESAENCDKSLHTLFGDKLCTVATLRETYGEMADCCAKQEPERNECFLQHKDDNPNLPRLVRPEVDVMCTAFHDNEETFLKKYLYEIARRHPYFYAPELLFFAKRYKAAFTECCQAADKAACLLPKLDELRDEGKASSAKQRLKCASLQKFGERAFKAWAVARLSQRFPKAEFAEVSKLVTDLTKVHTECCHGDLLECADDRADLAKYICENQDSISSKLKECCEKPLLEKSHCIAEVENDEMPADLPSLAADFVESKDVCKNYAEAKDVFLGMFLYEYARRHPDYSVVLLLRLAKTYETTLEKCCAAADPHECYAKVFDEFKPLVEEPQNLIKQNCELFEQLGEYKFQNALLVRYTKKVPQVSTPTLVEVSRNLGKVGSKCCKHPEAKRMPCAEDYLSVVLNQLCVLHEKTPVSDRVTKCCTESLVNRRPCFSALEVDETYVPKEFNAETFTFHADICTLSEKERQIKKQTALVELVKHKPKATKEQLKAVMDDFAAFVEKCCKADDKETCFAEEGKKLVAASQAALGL
# Chain of Calcium/calmodulin-dependent protein kinase type II subunit alpha (Homo sapiens) (Q9UQM7 whole entry): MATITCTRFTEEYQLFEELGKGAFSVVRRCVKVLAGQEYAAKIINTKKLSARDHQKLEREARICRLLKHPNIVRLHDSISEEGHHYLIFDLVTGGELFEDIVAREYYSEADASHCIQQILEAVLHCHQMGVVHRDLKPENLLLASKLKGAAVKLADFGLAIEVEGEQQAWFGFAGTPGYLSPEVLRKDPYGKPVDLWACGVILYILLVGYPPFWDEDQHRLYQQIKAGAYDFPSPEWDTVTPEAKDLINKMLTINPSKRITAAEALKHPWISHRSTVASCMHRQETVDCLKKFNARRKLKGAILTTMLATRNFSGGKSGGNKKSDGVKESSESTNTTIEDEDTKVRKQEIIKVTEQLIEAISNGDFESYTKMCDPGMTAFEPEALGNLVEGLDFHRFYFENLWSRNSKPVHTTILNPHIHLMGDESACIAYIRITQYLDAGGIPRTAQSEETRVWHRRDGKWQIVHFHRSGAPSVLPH
# Chain of Serine/threonine-protein kinase pim-1 (Homo sapiens) (P11309 whole entry, looked up): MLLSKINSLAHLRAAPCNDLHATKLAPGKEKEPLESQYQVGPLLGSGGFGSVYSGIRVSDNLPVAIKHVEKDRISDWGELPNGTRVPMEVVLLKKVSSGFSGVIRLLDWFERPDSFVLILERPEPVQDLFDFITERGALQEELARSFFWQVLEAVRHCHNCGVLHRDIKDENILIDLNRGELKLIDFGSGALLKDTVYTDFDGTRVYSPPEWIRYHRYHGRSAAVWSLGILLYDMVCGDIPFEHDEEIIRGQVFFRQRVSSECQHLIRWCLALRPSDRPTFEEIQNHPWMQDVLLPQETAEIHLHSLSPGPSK
structure (smiles),measurement,setting,value
COc1ccc(Cn2cc(C(=O)N/N=C3/C(=O)Nc4c(C)cccc43)nn2)cc1,inhibition,[1],inactive
same,Activity,MCF7 [2],Active
same,inhibition,[3],inactive
same,inhibition,[4],inactive
same,Activity,HepG2 [5],2.11%
same,Activity,MCF7 [6],0.75%
same,inhibition,[7],inactive
same,Activity,HepG2 [8],Active
same,inhibition,[9],inactive
same,Activity,MDA-MB-435S [10],2.24%
same,Activity,MDA-MB-435S [11],Active
same,Activity,MCF7 [12],13.1%
same,inhibition,[13],inactive
same,inhibition,[14],inactive
same,Ka,Albumin,1.27 ×10⁴ /M
same,IC50,MDA-MB-435S [15],9.94 µM
same,Activity,HepG2 [16],Active
same,inhibition,[17],inactive
same,inhibition,[18],inactive
same,Activity,MCF7 [19],33.5%
same,IC50,HEK293,200 µM
same,inhibition,[20],inactive
same,inhibition,[21],inactive
same,IC50,MCF7 [22],6.22 µM
same,inhibition,[23],inactive
same,inhibition,[24],inactive
same,Activity,HepG2 [25],37.3%
same,Activity,MCF7 [26],52.6%
same,Activity,MDA-MB-435S [27],30.9%
same,Activity,HepG2 [28],1.19%
same,inhibition,[29],inactive
same,Activity,MDA-MB-435S [30],0.59%
